Measured values as given in patent US7432260B2, “Pyrimidine compounds” (Cyclacel Limted, priority 2002, dated 2008).

Experiments:
[1] = tested on: A549; assay: 72-h MTT cytotoxicity assay A549; type: cell-based; conditions: Homo sapiens, A549, 72 h, Table 4
Procedure: (§1) MTT cytotoxicity assay. […] Standard 72-h MTT (thiazolyl blue; 3-[4,5-dimethylthiazol-2-yl]-2,5-diphenyltetrazolium bromide) assays were performed (Haselsberger, K.; Peterson, D. C.; Thomas, D. G.; Darling, J. L. Anti Cancer Drugs 1996, 7, 331-8; Loveland, B. E.; Johns, T. G.; Mackay, I. R.; Vaillant, F.; Wang, Z. X.; Hertzog, P. J. Biochemistry International 1992, 27, 501-10). In short: cells were seeded into 96-well plates according to doubling time and incubated overnight at 37° C. Test compounds were made up in DMSO and a 1/3 dilution series prepared in 100 μL cell media, added to cells (in triplicates) and incubated for 72 ho at 37° C. MTT was made up as a stock of 5 mg/mL in cell media and filter-sterilised. Media was removed from cells followed by a wash with 200 μL PBS.
(§2) MTT solution was then added at 20 μL per well and incubated in the dark at 37° C. for 4 h. MTT solution was removed and cells again washed with 200 μL PBS. MTT dye was solubilised with 200 μL per well of DMSO with agitation.

[2] = target: CDK7/cyclin H (Homo sapiens, UniProt P50613); assay: CDK7 assay; type: biochemical; conditions: Table 2; read-out: Kinase Inhibition IC50 CDK7 cyclin H
Procedure: (§3) Kinase assays. […] This was achieved by measurement of incorporation of radioactive phosphate from ATP into appropriate polypeptide substrates. Recombinant protein kinases and kinase complexes were produced or obtained commercially. Assays were performed using 96-well plates and appropriate assay buffers (typically 25 mM β-glycerophosphate, 20 mM MOPS, 5 mM EGTA, 1 mM DTT, 1 mM […], pH 7.4), into which were added 2-4 μg of active enzyme with appropriate substrates. The reactions were initiated by addition of Mg/ATP mix (15 mM MgCl2+100 μM ATP with 30-50 kBq per well of [γ-^32P]-ATP) and mixtures incubated as required at 30° C. Reactions were stopped on ice, followed by filtration through p81 filterplates or GF/C filterplates (Whatman Polyfiltronics, Kent, UK). After washing 3 times with 75 mM aq orthophosphoric acid, plates were dried, scintillant added and incorporated radioactivity measured in a scintillation counter (TopCount, Packard Instruments, Pangbourne, Berks, UK). Compounds for kinase assay were made-up as 10 mM stocks in DMSO and diluted into 10% DMSO inrassay buffer.
(§4) CDK 7 and 9 assays. CTD peptide substrate (biotinyl-Ahx-(Tyr-Ser-Pro-Thr-Ser-Pro-Ser)4-NH2; 1-2 mg/mL) and recombinant human CDK7/cyclin H, CDK9/cyclin T1, or CDK9/cyclin K (0.5-2 μg) were incubated for 45 min at 30° C. in the presence of varying amounts of test compound in 20 mM MOPS pH 7.2, 25 mM β-glycerophosphate, 5 mM EGTA, 1 mM DTT, 1 mM sodium vanadate, 15 mM MgCl2, and 100 μM ATP (containing a trace amount of ^32PγATP) in a total volume of 25 μL in a 96-well microtiter plate. The reaction was stopped by placing the plate on ice for 2 min. Avidin (50 μg) was added to each well, and the plate was incubated at room temp for 30 min. The samples were transferred to a 96-well P81 filter plate, and washed (4×200 μL per well) with 75 mM phosphoric acid. Microscint 40 scintillation liquid (50 μL) was added to each well, and the amount of ^32P incorporation for each sample was measured using a Packard Topcount microplate scintillation counter.

[3] = target: CDK1/cyclin B (Homo sapiens, UniProt P06493); assay: Kinase assay CDK1/cyclin B; type: biochemical; conditions: Table 2; read-out: Kinase Inhibition IC50 CDK1 cyclin B
Procedure: as §3

[4] = tested on: HT29; assay: 72-h MTT cytotoxicity assay HT29; type: cell-based; conditions: Homo sapiens, HT-29, 72 h, Table 4
Procedure: as §1, §2

[5] = target: CDK4/cyclin D1 (Homo sapiens, UniProt P11802); assay: Kinase assay CDK4/cyclin D1; type: biochemical; conditions: Table 2; read-out: Kinase Inhibition IC50 CDK4 cyclin D1
Procedure: as §3

[6] = target: GSK-3β (Homo sapiens, UniProt P49841); assay: Kinase assay GSK-3β; type: biochemical; conditions: Table 2; read-out: Kinase Inhibition IC50 GSK-3β
Procedure: as §3

[7] = target: PLK-1 (Homo sapiens, UniProt P53350); assay: Kinase assay PLK-1; type: biochemical; conditions: Table 2; read-out: Kinase Inhibition IC50 PLK-1
Procedure: as §3

[8] = tested on: Saos-2; assay: 72-h MTT cytotoxicity assay Saos-2; type: cell-based; conditions: Homo sapiens, SAOS-2, 72 h, Table 4
Procedure: as §1, §2

[9] = target: CDK9/cyclin T1 (Homo sapiens, UniProt P50750); assay: CDK9 assay; type: biochemical; conditions: Table 2; read-out: Kinase Inhibition IC50 CDK9 cyclin T1
Procedure: as §3, §4

[10] = target: CDK2/cyclin A (Homo sapiens, UniProt P24941); assay: Kinase assay CDK2/cyclin A; type: biochemical; conditions: Table 2; read-out: Kinase Inhibition IC50 CDK2 cyclin A
Procedure: as §3

[11] = target: CDK2/cyclin E (Homo sapiens, UniProt P24941); assay: Kinase assay CDK2/cyclin E; type: biochemical; conditions: Table 2; read-out: Kinase Inhibition IC50 CDK2 cyclin E
Procedure: as §3

CDK4/cyclin D1, sequence (P11802 whole entry): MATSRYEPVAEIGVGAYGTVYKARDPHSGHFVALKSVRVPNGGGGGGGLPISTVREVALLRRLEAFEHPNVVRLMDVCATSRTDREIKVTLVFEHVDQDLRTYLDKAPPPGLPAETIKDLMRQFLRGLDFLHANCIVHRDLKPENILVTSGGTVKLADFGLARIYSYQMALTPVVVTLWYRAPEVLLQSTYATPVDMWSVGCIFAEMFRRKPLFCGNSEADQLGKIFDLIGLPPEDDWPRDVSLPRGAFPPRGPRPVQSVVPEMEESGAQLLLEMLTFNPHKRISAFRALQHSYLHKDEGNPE
CDK4/cyclin D1, sequence (P24385 whole entry partner): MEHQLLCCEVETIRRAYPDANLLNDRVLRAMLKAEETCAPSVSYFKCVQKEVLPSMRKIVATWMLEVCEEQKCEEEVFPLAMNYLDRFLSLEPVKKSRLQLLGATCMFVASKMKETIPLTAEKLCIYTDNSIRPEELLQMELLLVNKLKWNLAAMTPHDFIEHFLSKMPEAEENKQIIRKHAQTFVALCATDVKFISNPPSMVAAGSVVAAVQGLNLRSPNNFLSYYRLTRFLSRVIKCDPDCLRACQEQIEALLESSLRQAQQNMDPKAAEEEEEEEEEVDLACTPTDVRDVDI
CDK9/cyclin T1, sequence (P50750 whole entry): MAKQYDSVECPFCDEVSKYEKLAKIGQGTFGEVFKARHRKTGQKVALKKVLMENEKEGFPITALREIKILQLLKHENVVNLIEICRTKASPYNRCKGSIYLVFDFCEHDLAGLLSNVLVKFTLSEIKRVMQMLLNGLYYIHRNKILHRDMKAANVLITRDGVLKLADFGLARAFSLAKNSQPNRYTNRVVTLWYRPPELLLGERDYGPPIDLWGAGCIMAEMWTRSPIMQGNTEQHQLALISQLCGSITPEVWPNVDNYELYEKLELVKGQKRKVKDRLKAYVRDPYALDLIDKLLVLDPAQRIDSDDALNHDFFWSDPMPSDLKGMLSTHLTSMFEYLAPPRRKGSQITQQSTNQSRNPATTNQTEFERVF
CDK9/cyclin T1, sequence (O60563 whole entry partner): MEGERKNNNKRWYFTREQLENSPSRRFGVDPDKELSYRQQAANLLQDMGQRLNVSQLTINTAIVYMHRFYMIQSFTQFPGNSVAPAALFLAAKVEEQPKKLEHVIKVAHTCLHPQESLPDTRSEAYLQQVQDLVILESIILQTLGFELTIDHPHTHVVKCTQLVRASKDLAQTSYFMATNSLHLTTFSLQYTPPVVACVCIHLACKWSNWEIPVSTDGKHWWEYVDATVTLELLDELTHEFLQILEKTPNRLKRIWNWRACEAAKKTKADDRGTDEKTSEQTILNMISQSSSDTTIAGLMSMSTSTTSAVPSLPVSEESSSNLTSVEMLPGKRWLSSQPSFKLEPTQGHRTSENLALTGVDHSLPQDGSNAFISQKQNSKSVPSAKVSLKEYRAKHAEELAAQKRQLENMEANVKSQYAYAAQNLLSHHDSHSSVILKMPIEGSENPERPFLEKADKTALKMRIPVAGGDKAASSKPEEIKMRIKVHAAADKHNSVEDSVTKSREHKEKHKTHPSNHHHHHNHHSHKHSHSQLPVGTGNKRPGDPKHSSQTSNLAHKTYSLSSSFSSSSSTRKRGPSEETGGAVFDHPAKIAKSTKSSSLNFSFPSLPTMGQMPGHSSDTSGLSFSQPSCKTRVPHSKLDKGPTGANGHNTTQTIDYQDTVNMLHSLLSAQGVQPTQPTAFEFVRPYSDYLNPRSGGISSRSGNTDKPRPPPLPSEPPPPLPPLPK
GSK-3β, sequence (P49841 whole entry): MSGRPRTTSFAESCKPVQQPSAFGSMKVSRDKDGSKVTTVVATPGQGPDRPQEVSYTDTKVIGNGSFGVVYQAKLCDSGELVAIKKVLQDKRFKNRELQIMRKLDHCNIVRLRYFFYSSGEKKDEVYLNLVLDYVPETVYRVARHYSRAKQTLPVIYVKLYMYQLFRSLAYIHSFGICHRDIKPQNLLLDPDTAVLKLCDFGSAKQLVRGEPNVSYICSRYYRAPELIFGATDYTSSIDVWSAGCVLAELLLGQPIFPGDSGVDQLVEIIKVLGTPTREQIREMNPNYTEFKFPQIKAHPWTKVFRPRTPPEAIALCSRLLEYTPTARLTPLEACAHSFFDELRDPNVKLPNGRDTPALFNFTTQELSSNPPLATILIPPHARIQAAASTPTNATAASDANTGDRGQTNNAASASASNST
PLK-1, sequence (P53350 whole entry): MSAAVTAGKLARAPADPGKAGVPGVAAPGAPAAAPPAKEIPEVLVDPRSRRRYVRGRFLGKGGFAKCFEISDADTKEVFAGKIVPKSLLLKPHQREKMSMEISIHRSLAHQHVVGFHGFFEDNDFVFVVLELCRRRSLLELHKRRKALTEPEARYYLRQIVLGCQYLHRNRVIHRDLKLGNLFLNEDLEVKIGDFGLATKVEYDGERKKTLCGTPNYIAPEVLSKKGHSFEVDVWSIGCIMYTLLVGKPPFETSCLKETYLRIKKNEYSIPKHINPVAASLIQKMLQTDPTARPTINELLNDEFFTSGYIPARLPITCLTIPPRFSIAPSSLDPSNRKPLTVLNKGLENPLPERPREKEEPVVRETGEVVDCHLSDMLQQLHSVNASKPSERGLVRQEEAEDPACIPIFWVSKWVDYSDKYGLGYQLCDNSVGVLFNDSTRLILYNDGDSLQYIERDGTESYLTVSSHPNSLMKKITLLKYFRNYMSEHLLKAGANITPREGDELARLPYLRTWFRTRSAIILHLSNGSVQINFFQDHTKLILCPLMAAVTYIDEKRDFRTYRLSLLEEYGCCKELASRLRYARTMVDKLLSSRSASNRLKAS
CDK7/cyclin H, sequence (P50613 whole entry): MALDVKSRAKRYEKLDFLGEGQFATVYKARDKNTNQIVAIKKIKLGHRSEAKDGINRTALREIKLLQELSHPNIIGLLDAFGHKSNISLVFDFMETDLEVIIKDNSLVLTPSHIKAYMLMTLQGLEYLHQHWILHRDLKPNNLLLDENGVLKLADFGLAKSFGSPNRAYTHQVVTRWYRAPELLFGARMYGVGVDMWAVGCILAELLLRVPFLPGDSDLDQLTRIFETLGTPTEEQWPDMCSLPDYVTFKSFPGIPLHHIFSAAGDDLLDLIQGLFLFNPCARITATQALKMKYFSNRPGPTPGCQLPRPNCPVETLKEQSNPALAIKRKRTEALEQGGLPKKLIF
CDK1/cyclin B, sequence (P06493 whole entry): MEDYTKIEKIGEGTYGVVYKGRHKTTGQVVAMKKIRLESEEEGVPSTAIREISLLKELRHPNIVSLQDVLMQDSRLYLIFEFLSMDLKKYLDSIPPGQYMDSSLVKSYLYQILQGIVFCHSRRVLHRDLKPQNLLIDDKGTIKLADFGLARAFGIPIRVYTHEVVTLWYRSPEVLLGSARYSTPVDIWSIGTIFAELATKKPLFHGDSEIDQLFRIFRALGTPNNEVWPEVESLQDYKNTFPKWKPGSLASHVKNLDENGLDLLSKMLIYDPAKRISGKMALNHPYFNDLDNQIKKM
CDK1/cyclin B, sequence (P14635 whole entry partner): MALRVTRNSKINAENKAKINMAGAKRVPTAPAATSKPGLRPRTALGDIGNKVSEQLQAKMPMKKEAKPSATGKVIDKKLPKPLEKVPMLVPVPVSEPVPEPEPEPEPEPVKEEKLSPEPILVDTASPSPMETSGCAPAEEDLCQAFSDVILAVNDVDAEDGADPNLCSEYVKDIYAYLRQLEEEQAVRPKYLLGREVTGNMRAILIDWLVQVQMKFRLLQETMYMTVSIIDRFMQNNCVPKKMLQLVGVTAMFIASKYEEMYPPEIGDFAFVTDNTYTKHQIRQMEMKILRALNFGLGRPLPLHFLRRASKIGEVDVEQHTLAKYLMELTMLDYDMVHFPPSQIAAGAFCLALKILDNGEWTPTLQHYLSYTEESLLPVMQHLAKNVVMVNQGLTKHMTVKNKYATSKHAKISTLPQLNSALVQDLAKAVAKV

Compound	IC50 [2]	IC50 [3]	IC50 [5]	IC50 [6]	IC50 [7]	IC50 [9]	IC50 [10]	IC50 [11]	IC50 [1]	IC50 [4]	IC50 [8]
CC(=O)N1CCN(c2ccc(Nc3nccc(-c4sc(C)nc4C)n3)cc2)CC1 [Compound 5, 1-(4-{4-[4-(2,4-Dimethyl-thiazol-5-yl)-pyrimidin-2-ylamino]-phenyl}-piperazin-1-yl)-ethanone]	5.6 µM	5.6 µM	1.7 µM	21 µM	35 µM	6.1 µM			3.8 µM	2.2 µM	3.9 µM
Cc1nc(C)c(-c2ccnc(Nc3ccc(N4CCOCC4)cc3)n2)s1 [Compound 2, [4-(2,4-Dimethyl-thiazol-5-yl)-pyrimidin-2-yl]-(4-morpholin-4-yl-phenyl)-amine]	97 µM	75 µM	3.9 µM	> 100 µM	> 100 µM	23 µM			3.5 µM	3.3 µM	4.8 µM
Cc1nc(N2CCOCC2)sc1-c1ccnc(Nc2ccc(N(C)C)cc2)n1 [Compound 57, N,N-Dimethyl-N′-[4-(4-methyl-2-morpholin-4-yl-thiazol-5-yl)-pyrimidin-2-yl]-benzene-1,4-diamine]	0.19 µM	7.7 µM	0.071 µM	74 µM		12 µM	73 µM	0.35 µM	2.7 µM	0.24 µM	3.8 µM
Cc1nc(N2CCOCC2)sc1-c1ccnc(Nc2cccc(O)c2)n1 [Compound 55, 3-[4-(4-Methyl-2-morpholin-4-yl-thiazol-5-yl)-pyrimidin-2-ylamino]-phenol]	2.2 µM	2.4 µM	1 µM	67 µM		2.1 µM	61 µM	0.079 µM	2.3 µM	5.1 µM	1.4 µM
Cc1c(-c2ccnc(Nc3ccc(N4CCN(C)CC4)cc3)n2)sc(=O)n1C [Compound 93, 3,4-Dimethyl-5-{2-[4-(4-methyl-piperazin-1-yl)-phenylamino]-pyrimidin-4-yl}-3H-thiazol-2-one]	0.36 µM	4.4 µM	0.51 µM	0.43 µM		0.3 µM	1.1 µM	0.84 µM			
Cc1nc(C)c(-c2ccnc(Nc3ccc(NC(=O)Cn4ccnc4)cc3)n2)s1 [Compound 54, N-{4-[4-(2,4-Dimethyl-thiazol-5-yl)-pyrimidin-2-ylamino]-phenyl}-2-imidazol-1-yl-acetamide]	2.1 µM	1.3 µM	0.032 µM	19 µM		0.11 µM	57 µM	0.098 µM	2.9 µM	2.7 µM	1.9 µM

Further lines, with some results ahead:

IC50 [2]	IC50 [3]	IC50 [5]	IC50 [6]	IC50 [7]	IC50 [9]	IC50 [10]	IC50 [11]	Compound	IC50 [1]	IC50 [4]	IC50 [8]
1 µM	72 µM	3.4 µM	6.1 µM		0.26 µM	1 µM	0.15 µM	CNc1nc(C)c(-c2ccnc(Nc3ccc(OCCOC)c([N+](=O)[O-])c3)n2)s1 [Compound 77, [4-(2-Methoxy-ethoxy)-3-nitro-phenyl]-[4-(4-methyl-2-methylamino-thiazol-5-yl)-pyrimidin-2-yl]-amine]	0.31 µM	0.21 µM	0.35 µM
9.6 µM	62 µM	25 µM	48 µM		4.1 µM	12 µM	0.73 µM	Cc1nc(C)c(-c2ccnc(Nc3ccc(Cl)c(CO)c3)n2)s1 [Compound 72, {2-Chloro-5-[4-(2,4-dimethyl-thiazol-5-yl)-pyrimidin-2-ylamino]-phenyl}-methanol]	32 µM	20 µM	18 µM
0.2 µM	0.24 µM	1.7 µM	0.25 µM	> 100 µM	0.11 µM	0.098 µM	0.0025 µM	Cc1nc(NC(=O)CCN2CCOCC2)sc1-c1ccnc(Nc2cccc([N+](=O)[O-])c2)n1 [Compound 22, N-{4-Methyl-5-[2-(3-nitro-phenylamino)-pyrimidin-4-yl]-thiazol-2-yl}-3-morpholin-4-yl-propionamide]	0.81 µM	0.52 µM	0.6 µM
		1.1 µM	0.21 µM		0.0014 µM		0.005 µM	Cc1nc(NS(C)(=O)=O)sc1-c1ccnc(Nc2cccc([N+](=O)[O-])c2)n1 [Compound 32, N-{4-Methyl-5-[2-(3-nitro-phenylamino)-pyrimidin-4-yl]-thiazol-2-yl}-methanesulfonamide]	0.1 µM	0.17 µM	0.16 µM
2.3 µM	2.5 µM	0.042 µM	6.8 µM		1.5 µM			CNc1nc(C)c(-c2ccnc(Nc3ccc(N4CCN(C(C)=O)CC4)cc3)n2)s1 [Compound 61, 1-(4-{4-[4-(4-Methyl-2-methylamino-thiazol-5-yl)-pyrimidin-2-ylamino]-phenyl}-piperazin-1-yl)-ethanone]	0.72 µM	0.53 µM	1 µM
3.2 µM	9.4 µM	0.97 µM	0.083 µM		0.68 µM	3 µM	0.22 µM	Cc1nc(NC(=O)CCl)sc1-c1ccnc(Nc2cccc(Cl)c2)n1 [Compound 25, 2-Chloro-N-{5-[2-(3-chloro-phenylamino)-pyrimidin-4-yl]-4-methyl-thiazol-2-yl}-acetamide]	0.97 µM	1.3 µM	1.6 µM
2.4 µM	0.33 µM		2.4 µM		4.2 µM	0.006 µM	0.22 µM	Cc1nc(N2CCOCC2)sc1-c1ccnc(Nc2cccc([N+](=O)[O-])c2)n1 [Compound 71, [4-(4-Methyl-2-morpholin-4-yl-thiazol-5-yl)-pyrimidin-2-yl]-(3-nitro-phenyl)-amine]	80 µM	71 µM	10 µM
2 µM	1.7 µM	0.23 µM	5.2 µM		0.55 µM	1.3 µM	1 µM	CNc1nc(C)c(-c2ccnc(Nc3ccc(Cl)c(CO)c3)n2)s1 [Compound 73, {2-Chloro-5-[4-(4-methyl-2-methylamino-thiazo1-5-yl)-pyrimidin-2-ylamino]-phenyl}-methanol]	1.5 µM	5.5 µM	2.9 µM
